Assay results as given in patent US20240132498A1, “CRYSTALLINE FORMS OF 5-(3,4-DIFLUOROBENZYL)-8-((1R,4R)-4-METHYLCYCLOHEXYL)-6,9-DIOXO-2,5,8-TRIAZASPIRO[3.5]NONANE-2-CARBALDEHYDE” (Cytokinetics, Incorporated, priority 2022, published 2024).
≈ marks a conversion by molar mass, not a printed value. Where two headings read alike, the source gives them in different places. Values belong to the molecule of their own block, whether it stands above or below them.

How the values were obtained:
CYP2C8 = biological target: T1, CYP2C8 (Homo sapiens, UniProt P10632); assay: Time-dependent inhibition of CYP450 enzymes in human liver microsomes: CYP2C8; format: in vitro ADME
T1 construct: from tissue; host or cells: pooled human liver microsomes
T1 sequence (P10632 1-490): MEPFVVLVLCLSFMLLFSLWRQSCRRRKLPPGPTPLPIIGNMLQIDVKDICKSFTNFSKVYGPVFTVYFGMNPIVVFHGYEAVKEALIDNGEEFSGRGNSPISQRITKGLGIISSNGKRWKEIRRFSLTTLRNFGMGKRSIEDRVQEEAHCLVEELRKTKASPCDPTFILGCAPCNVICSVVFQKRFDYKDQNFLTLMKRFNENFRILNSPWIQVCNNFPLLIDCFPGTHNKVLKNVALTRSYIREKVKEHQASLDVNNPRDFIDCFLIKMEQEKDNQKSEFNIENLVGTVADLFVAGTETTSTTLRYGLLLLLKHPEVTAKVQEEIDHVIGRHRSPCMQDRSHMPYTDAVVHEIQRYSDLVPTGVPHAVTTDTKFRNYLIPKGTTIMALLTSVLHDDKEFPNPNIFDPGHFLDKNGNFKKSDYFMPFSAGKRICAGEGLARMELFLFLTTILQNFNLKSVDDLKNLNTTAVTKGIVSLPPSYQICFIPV
Protocol: (§1) An assessment of the time-dependent Inhibitory Potential of the test compounds against Principal Human Cytochrome P450 Isozymes using Human Liver Microsomes was also carried out using standard methods (Grimm et al, Drug Metab. Dispos., Jul; 37(7):1355-70. doi: 10.1124/dmd.109.026716, 2009). Pooled human microsomes and selective CYP probe substrates were used for in vitro assessment of test compounds at 25 and 50 μM as time-dependent inhibitors of […] human hepatic cytochrome P450 isozymes (CYP1A2, 2B6, 2C9, 2C19, 2D6, and 3A4). LC-MS/MS was used to quantify metabolite formation. The inhibition of each P450 enzyme in human liver microsomes was measured as the percentage decrease in the activity of marker metabolite formation as measured by LC-MS/MS compared to non-inhibited controls (=100% activity) at time zero and after 30 minutes incubation. The occurrence of any time dependent inhibition was then expressed as the fold change in enzyme activity at time zero relative to the activity after 30 minutes incubation. The time dependent inhibition for the compound 5-(3,4-difluorobenzyl)-8-((1 r,4r)-4-methylcyclohexyl)-6,9-dioxo-2,5, 8-triazaspiro [3.5]nonane-2-carbaldehyde (Compound 1) against CYP1A2, […], CYP2C8, CYP2C9, CYP2C19, CYP2D6, CYP3A4-M and CYP3A4-T is shown in Table B-12.

CYP2C9 = biological target: T2, CYP2C9 (Homo sapiens, UniProt P11712); assay: Time-dependent inhibition of CYP450 enzymes in human liver microsomes: CYP2C9; format: in vitro ADME
T2 construct: from tissue; host or cells: pooled human liver microsomes
Protocol: as §1

CYP2C19 = biological target: T3, CYP2C19 (Homo sapiens, UniProt P33261); assay: Time-dependent inhibition of CYP450 enzymes in human liver microsomes: CYP2C19; format: in vitro ADME; settings: for fold change in activity (time dependent inhibition), 2C19: human liver microsomes
T3 construct: from tissue; host or cells: pooled human liver microsomes
Protocol: as §1

[1] = Kinetic solubility of crystalline Form II in solvents; format: physicochemical; settings: for solubility at 4 h: 25 °C, thermodynamic from solid; for Solubility: 25° C., 4 hours
Protocol: The solubility of crystalline Form II was analyzed with 15 types of common solvents. Sufficient amount of Form II was suspended in 0.5 mL solvent for a maximum anticipated concentration of Ca. =10-100 mg/ml of the free Form II. The resulting suspensions were then shaken in a platform shaker at 25° C./ 750 rpm for 4 hours. After equilibration, the appearance was recorded, and the pH of the saturated solution was measured for aqueous samples only. Samples were then centrifuged for 5 minutes at 13.4 krpm before dilution with MeCN except for the samples that were initially diluted in n-heptane, which were then diluted in 2-propanol rather than MeCN.
All diluted samples were then analyzed by HPLC. Samples were further diluted based on appearance and the maximum anticipated concentration […]. All diluted samples were injected at 10, 15 and 20 piL to obtain peak areas within the calibration curve as a diluted concentration of Ca. 0.1 mg/ml was trying to be achieved.
Quantitation was measured by HPLC with reference to a standard solution of approximately 0.15 mg/ml in MeCN. Different volumes of the standard diluted and undiluted sample solutions were injected. The solubility was calculated using the peak areas determined by integration of the peak found at the same retention time as the principal peak in the standard injection.

T2 sequence (P11712 whole entry): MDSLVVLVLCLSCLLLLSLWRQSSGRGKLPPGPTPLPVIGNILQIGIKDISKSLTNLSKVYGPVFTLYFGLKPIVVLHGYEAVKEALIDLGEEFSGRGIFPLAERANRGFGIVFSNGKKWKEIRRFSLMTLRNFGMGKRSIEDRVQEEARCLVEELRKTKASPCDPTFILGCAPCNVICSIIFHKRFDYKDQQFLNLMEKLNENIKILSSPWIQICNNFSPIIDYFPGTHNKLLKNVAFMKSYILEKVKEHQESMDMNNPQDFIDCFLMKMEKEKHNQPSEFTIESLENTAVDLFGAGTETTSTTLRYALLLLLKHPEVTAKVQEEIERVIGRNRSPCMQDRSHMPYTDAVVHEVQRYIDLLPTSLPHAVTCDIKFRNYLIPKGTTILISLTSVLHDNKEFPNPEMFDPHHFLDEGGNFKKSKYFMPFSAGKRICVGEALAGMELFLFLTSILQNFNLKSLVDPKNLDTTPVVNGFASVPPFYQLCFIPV
T3 sequence (P33261 whole entry): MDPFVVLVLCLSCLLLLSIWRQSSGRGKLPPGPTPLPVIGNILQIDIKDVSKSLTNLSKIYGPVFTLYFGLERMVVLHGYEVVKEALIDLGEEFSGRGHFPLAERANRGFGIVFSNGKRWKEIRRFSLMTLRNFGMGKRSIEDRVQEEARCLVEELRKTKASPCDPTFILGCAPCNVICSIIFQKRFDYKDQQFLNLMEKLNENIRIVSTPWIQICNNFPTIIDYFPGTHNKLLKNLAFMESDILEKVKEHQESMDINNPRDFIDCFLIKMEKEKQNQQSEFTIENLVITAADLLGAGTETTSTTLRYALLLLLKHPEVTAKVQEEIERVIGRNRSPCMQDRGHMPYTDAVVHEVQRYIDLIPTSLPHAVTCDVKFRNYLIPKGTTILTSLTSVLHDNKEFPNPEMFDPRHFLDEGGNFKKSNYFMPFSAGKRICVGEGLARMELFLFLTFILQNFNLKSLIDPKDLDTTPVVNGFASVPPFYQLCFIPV

(% Activity NADPH T0)/(% Activity NADPH T30) (CYP2C8; CYP2C8, 25 μM): 1.0 | (% Activity NADPH T0)/(% Activity NADPH T30) (CYP2C8; CYP2C8, 50 μM): 1.2 | activity at 30 min, 25 µM (CYP2C8; human, pooled human liver microsomes, CYP2C8, 25 μM, 30 minutes incubation, read-out: % Activity NADPH T30): 80% | activity at 0 min, 25 µM (CYP2C8; human, pooled human liver microsomes, CYP2C8, 25 μM, time zero, read-out: % Activity NADPH T0): 79% | activity at 30 min, 50 µM (CYP2C8; human, pooled human liver microsomes, CYP2C8, 50 μM, 30 minutes incubation, read-out: % Activity NADPH T30): 79% | activity at 0 min, 50 µM (CYP2C8; human, pooled human liver microsomes, CYP2C8, 50 μM, time zero, read-out: % Activity NADPH T0): 97% | (% Activity NADPH T0)/(% Activity NADPH T30) (CYP2C9; CYP2C9, 25 μM): 1.0 | (% Activity NADPH T0)/(% Activity NADPH T30) (CYP2C9; CYP2C9, 50 μM): 0.9 | activity at 30 min, 25 µM (CYP2C9; human, pooled human liver microsomes, CYP2C9, 25 μM, 30 minutes incubation, read-out: % Activity NADPH T30): 84% | activity at 0 min, 25 µM (CYP2C9; human, pooled human liver microsomes, CYP2C9, 25 μM, time zero, read-out: % Activity NADPH T0): 83% | activity at 30 min, 50 µM (CYP2C9; human, pooled human liver microsomes, CYP2C9, 50 μM, 30 minutes incubation, read-out: % Activity NADPH T30): 71% | activity at 0 min, 50 µM (CYP2C9; human, pooled human liver microsomes, CYP2C9, 50 μM, time zero, read-out: % Activity NADPH T0): 63% | (% Activity NADPH T0)/(% Activity NADPH T30) (CYP2C19; CYP2C19, 25 μM): 1.4 | (% Activity NADPH T0)/(% Activity NADPH T30) (CYP2C19; CYP2C19, 50 μM): 1.1 | fold change in activity (time dependent inhibition), 2C19 (CYP2C19; 25 μM): 1.4 fold | fold change in activity (time dependent inhibition), 2C19 (CYP2C19; 50 μM): no change in activity | activity at 30 min, 25 µM (CYP2C19; human, pooled human liver microsomes, CYP2C19, 25 μM, 30 minutes incubation, read-out: % Activity NADPH T30): 86% | activity at 0 min, 25 µM (CYP2C19; human, pooled human liver microsomes, CYP2C19, 25 μM, time zero, read-out: % Activity NADPH T0): 117% | activity at 30 min, 50 µM (CYP2C19; human, pooled human liver microsomes, CYP2C19, 50 μM, 30 minutes incubation, read-out: % Activity NADPH T30): 75% | activity at 0 min, 50 µM (CYP2C19; human, pooled human liver microsomes, CYP2C19, 50 μM, time zero, read-out: % Activity NADPH T0): 84%
Compound: C[C@H]1CC[C@H](N2CC(=O)N(Cc3ccc(F)c(F)c3)C3(CN(C=O)C3)C2=O)CC1 [Compound 1, 5-(3,4-difluorobenzyl)-8-((1r,4r)-4-methylcyclohexyl)-6,9-dioxo-2,5,8-triazaspiro[3.5]nonane-2-carbaldehyde]

solubility at 4 h ([1]; 2-BuOH, organic solvent or mixture, 2-BuOH, read-out: Average Solubility): 11 mg/mL (≈ 27.1 mM) | solubility at 4 h ([1]; 2-BuOH, organic solvent or mixture, 2-BuOH, single replicate, read-out: Solubility): 11 mg/mL (≈ 27.1 mM) | solubility at 4 h ([1]; 2-Me-THF, organic solvent or mixture, 2-Me-THF, read-out: Average Solubility): 24 mg/mL (≈ 59.2 mM) | solubility at 4 h ([1]; 2-Me-THF, organic solvent or mixture, 2-Me-THF, single replicate, read-out: Solubility): 24 mg/mL (≈ 59.2 mM) | solubility at 4 h ([1]; Acetone, organic solvent or mixture, Acetone, single replicate, read-out: Solubility): > 101 mg/mL | solubility at 4 h ([1]; DI Water, pH 8.7, water, DI Water, final pH 8.7, read-out: Average Solubility): ~0.41 mg/mL (≈ 1.01 mM) | solubility at 4 h ([1]; DI Water, pH 8.7, water, DI Water, final pH 8.7, single replicate, read-out: Solubility): 0.5 mg/mL (≈ 1.23 mM) | Solubility ([1]; DI Water, final pH 8.7, single replicate): 0.31 mg/mL (≈ 0.765 mM) | solubility at 4 h ([1]; DMSO, organic solvent or mixture, DMSO, read-out: Average Solubility): > 100 mg/mL | solubility at 4 h ([1]; DMSO, organic solvent or mixture, DMSO, single replicate, read-out: Solubility): > 101 mg/mL | Solubility ([1]; DMSO, single replicate): >101.2 mg/mL | solubility at 4 h ([1]; EtOH, organic solvent or mixture, EtOH, read-out: Average Solubility): ~24 mg/mL (≈ 59.2 mM) | solubility at 4 h ([1]; EtOH, organic solvent or mixture, EtOH, single replicate, read-out: Solubility): 25 mg/mL (≈ 61.7 mM) | Solubility ([1]; EtOH, single replicate): 23 mg/mL (≈ 56.7 mM) | solubility at 4 h ([1]; IPA, organic solvent or mixture, IPA, read-out: Average Solubility): 9.8 mg/mL (≈ 24.2 mM) | solubility at 4 h ([1]; IPA, organic solvent or mixture, IPA, single replicate, read-out: Solubility): 9.8 mg/mL (≈ 24.2 mM) | solubility at 4 h ([1]; Isopropyl acetate, organic solvent or mixture, Isopropyl acetate, single replicate, read-out: Solubility): 22 mg/mL (≈ 54.3 mM) | solubility at 4 h ([1]; MIBK, organic solvent or mixture, MIBK, read-out: Average Solubility): 39 mg/mL (≈ 96.2 mM) | solubility at 4 h ([1]; MIBK, organic solvent or mixture, MIBK, single replicate, read-out: Solubility): 39 mg/mL (≈ 96.2 mM) | solubility at 4 h ([1]; MeCN, organic solvent or mixture, MeCN, read-out: Average Solubility): > 100 mg/mL | solubility at 4 h ([1]; MeCN, organic solvent or mixture, MeCN, single replicate, read-out: Solubility): > 101 mg/mL | Solubility ([1]; MeCN, single replicate): >100.6 mg/mL | solubility at 4 h ([1]; MeOH, organic solvent or mixture, MeOH, read-out: Average Solubility): > 100 mg/mL | solubility at 4 h ([1]; MeOH, organic solvent or mixture, MeOH, single replicate, read-out: Solubility): > 100 mg/mL | Solubility ([1]; MeOH, single replicate): >100.6 mg/mL | solubility at 4 h ([1]; THF, organic solvent or mixture, THF, read-out: Average Solubility): > 100 mg/mL | solubility at 4 h ([1]; THF, organic solvent or mixture, THF, single replicate, read-out: Solubility): > 102 mg/mL | Solubility ([1]; THF, single replicate): >101.2 mg/mL | solubility at 4 h ([1]; Tert-Butylmethyl ether, organic solvent or mixture, Tert-Butylmethyl ether, read-out: Average Solubility): 1.12 mg/mL (≈ 2.76 mM) | solubility at 4 h ([1]; Tert-Butylmethyl ether, organic solvent or mixture, Tert-Butylmethyl ether, single replicate, read-out: Solubility): 1.12 mg/mL (≈ 2.76 mM) | solubility at 4 h ([1]; Toluene, organic solvent or mixture, Toluene, read-out: Average Solubility): 9.6 mg/mL (≈ 23.7 mM) | solubility at 4 h ([1]; Toluene, organic solvent or mixture, Toluene, single replicate, read-out: Solubility): 9.5 mg/mL (≈ 23.4 mM) | Solubility ([1]; Toluene, single replicate): 9.6 mg/mL (≈ 23.7 mM) | solubility at 4 h ([1]; acetone, organic solvent or mixture, Acetone, read-out: Average Solubility): > 100 mg/mL | solubility at 4 h ([1]; isopropyl acetate, organic solvent or mixture, Isopropyl acetate, read-out: Average Solubility): 22 mg/mL (≈ 54.3 mM)
Compound: C[C@H]1CC[C@H](N2CC(=O)N(Cc3ccc(F)c(F)c3)C3(CN(C=O)C3)C2=O)CC1 [Form II, 5-(3,4-difluorobenzyl)-8-((1r,4r)-4-methylcyclohexyl)-6,9-dioxo-2,5,8-triazaspiro[3.5]nonane-2-carbaldehyde]
